From ChEMBL document CHEMBL3120109, “Discovery of Thienoimidazole-Based HCV NS5A Genotype 1a and 1b Inhibitors” (ACS Med Chem Lett, 2014) come the findings set out here.

A value given as a limit tells only on which side of the number the result lay.

A short description of series [1]: Half life in rat at 3 mg/kg, iv. The series is classed as ADME, organism-based. Further details: dose 3 mg/kg, route intravenous. The following applies: in vivo.
A short description of series [2]: AUC (0 to 8 hrs) in rat at 3 mg/kg, po. Details: time < 8 hr, dose 3 mg/kg, route oral. The conditions noted are these: plasma. Type of series: ADME, organism-based.
The test system of series [3] is Hepatitis C virus. Briefly: Antiviral activity against Hepatitis C virus genotype 1b infected in human Huh-5.2 cells assessed as decrease in HCV replicon RNA replication after 4 days by luciferase assay. Type of series: functional, organism-based, Hepacivirus hominis. The conditions noted are these: Huh-5-2, 96 h.
Series [4] is described as follows: Volume of distribution at steady state in rat at 3 mg/kg, iv. The series is classed as ADME, organism-based. Further details: dose 3 mg/kg, route intravenous. The following applies: in vivo, read-out: Vdss.
Series [5] has as its system Hepatitis C virus. Briefly: Antiviral activity against Hepatitis C virus genotype 1a infected in W11.8 cells assessed as decrease in NS5A expression in replicon cell after 4 days by luminescence based ELISA. The series is classed as functional, organism-based, Hepacivirus hominis. The following applies: subtype 1a, W11.8, 96 h.
Series [6] can be described thus: Clearance in rat at 3 mg/kg, iv. The conditions noted are these: in vivo. Type of series: ADME, organism-based. Further details: dose 3 mg/kg, route intravenous.
The nature of series [7]: Cytotoxicity against human HuhET cells by [3H]thymidine incorporation assay. The series is classed as cell-based.
A short description of series [8]: Half life in rat at 3 mg/kg, po. The series is classed as ADME, organism-based. Further details: dose 3 mg/kg, route oral. The following applies: in vivo.
Series [9] in a line: Oral bioavailability in rat at 3 mg/kg. The series is classed as ADME, organism-based. The conditions noted are these: in vivo.
The nature of series [10]: Ratio of EC50 for Hepatitis C virus genotype 1a infected in W11.8 cells to EC50 for Hepatitis C virus genotype 1b infected in human Huh-5.2 cells. The series is classed as functional.
Series [11] in a line: Efflux ratio of permeability from basolateral to apical over apical to basolateral side in human Caco2 cells. The series is classed as ADME, cell-based. The following applies: Caco-2.
Series [12] can be described thus: Metabolic stability in rat liver microsomes assessed as intact compound level at 5 uM after 1 hr. The series is classed as ADME. The conditions noted are these: read-out: Stability.
For series [13], the system named is Hepatitis C virus. Briefly: Ratio of EC50 for Hepatitis C virus genotype 1a harboring NS5A M28T mutant gene to EC50 for Hepatitis C virus genotype 1a harboring wild type NS5A. Type of series: functional, Hepacivirus hominis, subtype 1a.
Series [14] has as its system Hepatitis C virus. Briefly: Ratio of EC50 for Hepatitis C virus genotype 1a harboring NS5A Q30R mutant gene to EC50 for Hepatitis C virus genotype 1a harboring wild type NS5A. Type of series: functional, Hepacivirus hominis, subtype 1a.
Series [15] concerns Hepatitis C virus. Briefly: Ratio of EC50 for Hepatitis C virus genotype 1a harboring NS5A Y93H mutant gene to EC50 for Hepatitis C virus genotype 1a harboring wild type NS5A. Type of series: functional, Hepacivirus hominis, subtype 1a.
Series [16] relates to Hepatitis C virus. Briefly: Ratio of EC50 for Hepatitis C virus genotype 1b harboring NS5A Y93H mutant gene to EC50 for Hepatitis C virus genotype 1b harboring wild type NS5A. Type of series: functional, Hepacivirus hominis.
Series [17] in a line: Metabolic stability in human liver microsomes assessed as intact compound level at 5 uM after 1 hr. The series is classed as ADME. The following applies: read-out: Stability.
In series [18] the test system is Hepatitis C virus. Briefly: Ratio of EC50 for Hepatitis C virus genotype 1a harboring NS5A Y93C mutant gene to EC50 for Hepatitis C virus genotype 1a harboring wild type NS5A. The series is classed as functional, Hepacivirus hominis, subtype 1a.

As for `COC(=O)N[C@H](C(=O)N1C[C@@H](C)C[C@H]1c1nc2cc(/C=C/c3ccc(-c4cc5[nH]c([C@@H]6C[C@H](C)CN6C(=O)[C@@H](NC(=O)OC)C(C)C)nc5s4)cc3)ccc2[nH]1)C(C)C`, the results for the half-life in series [1] and in series [8] were 6.6 h and 5 h, respectively. Also, the AUC(0-t) at 8 h in [2] was determined as 820 ng·h/mL. The EC50 with Hepatitis C virus [3] worked out at 0.004 nM; with Hepatitis C virus [5] it was 0.038 nM. Further, in series [4], the Vd amounted to 2.7 L/kg. Besides, the clearance in series [6] was found to be 6 mL/min/kg. Moreover, the CC50 in series [7] is greater than 20000 nM. The bioavailability in [9] turned out to be 14.1%.

For `COC(=O)N[C@H](C(=O)N1C[C@@H](C)C[C@H]1c1ncc(-c2cc3sc(-c4ccc(-c5cc6[nH]c([C@@H]7C[C@H](C)CN7C(=O)[C@@H](NC(=O)OC)C(C)C)nc6s5)cc4)cc3s2)[nH]1)C(C)C`, the half-life is 5.1 h in series [1] and 10.8 h in series [8]. Moreover, the AUC(0-t) at 8 h in [2] was 460 ng·h/mL. The values for the EC50 in the series with Hepatitis C virus [3] and in the series on Hepatitis C virus [5] were 0.014 nM and 0.054 nM, respectively. Moreover, the Vd in series [4] amounted to 2 L/kg. In addition, the clearance in [6] turned out to be 5.1 mL/min/kg. In addition, the “Ratio EC50” value in [10] was determined as 3.8. In addition, in series [7], the CC50 was greater than 20000 nM. Moreover, in series [9], the bioavailability was found to be 6.7%.

Take `COC(=O)N[C@H](C(=O)N1C[C@@H](C)C[C@H]1c1ncc(-c2csc3ccc(-c4ccc(-c5cc6[nH]c([C@@H]7C[C@H](C)CN7C(=O)[C@@H](NC(=O)OC)C(C)C)nc6s5)cc4)cc23)[nH]1)C(C)C`: the EC50 with Hepatitis C virus [3] was 6.8 nM; with Hepatitis C virus [5] it was greater than 100 nM. The compound also yielded a CC50 in series [7] of 16400 nM.

As for `COC(=O)N[C@H](C(=O)N1C[C@@H](C)C[C@H]1c1ncc(-c2ccc(-c3ccc(-c4cc5[nH]c([C@@H]6C[C@H](C)CN6C(=O)[C@@H](NC(=O)OC)C(C)C)nc5s4)cc3)s2)[nH]1)C(C)C`, the figures for the EC50 with Hepatitis C virus [3] and with Hepatitis C virus [5] were 0.007 nM and 0.034 nM, respectively. The “Ratio EC50” value in series [10] stood at 5. Besides, in [7], the midpoint of cytotoxicity, the CC50, lay at 18300 nM.

Regarding `COC(=O)N[C@H](C(=O)N1C[C@@H](C)C[C@H]1c1ncc(C#Cc2ccc(-c3ccc(-c4cc5[nH]c([C@@H]6C[C@H](C)CN6C(=O)[C@@H](NC(=O)OC)C(C)C)nc5s4)cc3)cc2)[nH]1)C(C)C`, the EC50 with Hepatitis C virus [3] worked out at 0.01 nM; with Hepatitis C virus [5], 1.12 nM. The “Ratio EC50” value in series [10] was determined as 112. In [7], this compound registered a half-maximal cytotoxic concentration (CC50) greater than 20000 nM.

For the compound `COC(=O)N[C@H](C(=O)N1C[C@@H](C)C[C@H]1c1ncc(C#Cc2ccc(-c3cc4[nH]c([C@@H]5C[C@H](C)CN5C(=O)[C@@H](NC(=O)OC)C(C)C)nc4s3)cc2)[nH]1)C(C)C`, the EC50 turned out to be 0.24 nM in the series on Hepatitis C virus [3] and 12 nM with Hepatitis C virus [5]. Also, in series [10], the “Ratio EC50” value is given as 50. Further, the half-maximal cytotoxic concentration (CC50) in series [7] was greater than 20000 nM.

For the compound `COC(=O)N[C@H](C(=O)N1C[C@@H](C)C[C@H]1c1ncc(-c2ccc(-c3ccc(-c4cc5[nH]c([C@@H]6C[C@H](C)CN6C(=O)[C@@H](NC(=O)OC)C(C)C)nc5s4)cc3)c(F)c2)[nH]1)C(C)C`, the EC50 in the series on Hepatitis C virus [3] was 0.013 nM; in the series with Hepatitis C virus [5], 0.235 nM. In series [10], the “Ratio EC50” value is reported as 18. In addition, in series [7], the CC50 came out at 3100 nM.

`COC(=O)N[C@H](C(=O)N1C[C@@H](C)C[C@H]1c1ncc(-c2ccc(-c3ccc(-c4cc5[nH]c([C@@H]6C[C@H](C)CN6C(=O)[C@@H](NC(=O)OC)C(C)C)nc5s4)cc3)cc2F)[nH]1)C(C)C`: the EC50 with Hepatitis C virus [3] was determined as 0.003 nM; with Hepatitis C virus [5], 0.071 nM. In series [7], the CC50 was greater than 20000 nM.

For the compound `COC(=O)N[C@H](C(=O)N1C[C@@H](C)C[C@H]1c1ncc(-c2ccc(-c3ccc(-c4cc5[nH]c([C@@H]6C[C@H](C)CN6C(=O)[C@@H](NC(=O)OC)C(C)C)nc5s4)cc3)c(C)c2)[nH]1)C(C)C`, the EC50 in the series with Hepatitis C virus [3] worked out at 0.002 nM; with Hepatitis C virus [5], 0.062 nM. The “Ratio EC50” value in series [10] turned out to be 31. In series [7], the CC50 is greater than 20000 nM.

With `COC(=O)N[C@H](C(=O)N1C[C@@H](C)C[C@H]1c1ncc(-c2ccc(-c3ccc(-c4cc5[nH]c([C@@H]6C[C@H](C)CN6C(=O)[C@@H](NC(=O)OC)C(C)C)nc5s4)cc3)cc2C)[nH]1)C(C)C`, the EC50 with Hepatitis C virus [3] was 0.005 nM; in the series with Hepatitis C virus [5], 0.114 nM. Moreover, in series [10], the “Ratio EC50” value came out at 23. Besides, the CC50 in [7] is greater than 20000 nM.

`COC(=O)N[C@H](C(=O)N1C[C@@H](C)C[C@H]1c1ncc(-c2ccc(-c3ccc(-c4cc5[nH]c([C@@H]6C[C@H](C)CN6C(=O)[C@@H](NC(=O)OC)C(C)C)nc5s4)cc3)cc2)[nH]1)C(C)C`: the results for the half-life in [1] and in series [8] were 6.1 h and 8.3 h, respectively. Moreover, the efflux ratio in series [11] stood at 2. This compound gave an AUC(0-t) at 8 h in series [2] of 1540 ng·h/mL. For the same compound, the results for the remaining at 1 h, 5 µM in series [12] and in series [17] were 91% and 100%, respectively. The figures for the EC50 in the series with Hepatitis C virus [3] and in the series with Hepatitis C virus [5] were 0.008 nM and 0.017 nM, respectively. Moreover, the Vd in series [4] was 2.4 L/kg. The “Ratio EC50” value is recorded as greater than 500 in the series with Hepatitis C virus [13]; greater than 500 in the series with Hepatitis C virus [14]; greater than 15000 in the series with Hepatitis C virus [15]; 900 in the series on Hepatitis C virus [16]; 2 in series [10]; greater than 15000 in the series with Hepatitis C virus [18]. In addition, the clearance in series [6] was 5.3 mL/min/kg. For the same compound, the CC50 in series [7] was greater than 20000 nM. The compound further registered a bioavailability in [9] of 25.6%.

For `COC(=O)N[C@H](C(=O)N1C[C@@H](C)C[C@H]1c1ncc(-c2cccc(-c3ccc(-c4cc5[nH]c([C@@H]6C[C@H](C)CN6C(=O)[C@@H](NC(=O)OC)C(C)C)nc5s4)cc3)c2)[nH]1)C(C)C`, the half-life in series [1] and in [8] was 5.1 h in each case. Besides, the AUC(0-t) at 8 h in series [2] was 490 ng·h/mL. In addition, the EC50 is 0.007 nM in the series on Hepatitis C virus [3] and 7.5 nM in the series with Hepatitis C virus [5]. Besides, the Vd in series [4] was 4.8 L/kg. The same compound registered a clearance in [6] of 13.5 mL/min/kg. The “Ratio EC50” value in series [10] is 1071. In [7], the CC50 was greater than 20000 nM. The compound also came in with a bioavailability in series [9] of 16%.

For the compound `COC(=O)N[C@H](C(=O)N1C[C@@H](C)C[C@H]1c1nc2cc(-c3ccc(-c4cc5[nH]c([C@@H]6C[C@H](C)CN6C(=O)[C@@H](NC(=O)OC)C(C)C)nc5s4)cc3)ccc2[nH]1)C(C)C`, the EC50 in the series on Hepatitis C virus [3] was found to be 0.005 nM; in the series with Hepatitis C virus [5], 0.619 nM. The CC50 in series [7] is greater than 20000 nM.

Turning to `COC(=O)N[C@H](C(=O)N1C[C@@H](C)C[C@H]1c1nc2cc(-c3ccc(-c4ccc(-c5cc6[nH]c([C@@H]7C[C@H](C)CN7C(=O)[C@@H](NC(=O)OC)C(C)C)nc6s5)cc4)cc3)ccc2[nH]1)C(C)C`, the EC50 in the series with Hepatitis C virus [3] is 0.024 nM; in the series on Hepatitis C virus [5], 0.622 nM. Moreover, the CC50 in [7] was greater than 20000 nM.

As to `COC(=O)N[C@H](C(=O)N1C[C@@H](C)C[C@H]1c1nc2cc(C#Cc3ccc(-c4cc5[nH]c([C@@H]6C[C@H](C)CN6C(=O)[C@@H](NC(=O)OC)C(C)C)nc5s4)cc3)ccc2[nH]1)C(C)C`, the EC50 was determined as 0.004 nM in the series with Hepatitis C virus [3] and 0.177 nM with Hepatitis C virus [5]. In [7], this compound had a CC50 greater than 20000 nM.

As to `COC(=O)N[C@H](C(=O)N1CCC[C@H]1c1ncc(-c2ccc(-c3ccc(-c4cnc([C@@H]5CCCN5C(=O)[C@@H](NC(=O)OC)C(C)C)[nH]4)cc3)cc2)[nH]1)C(C)C` [DACLATASVIR], the EC50 in the series on Hepatitis C virus [5] is 0.05 nM.
